Values quoted from earlier work as cited in US20050090475A1, “Extended triphasic contraceptive regimens” (priority 2003, published 2005).

Key:
[1] = target: T1, endometrial progesterone receptors (Homo sapiens, UniProt P06401)
T1 sequence (P06401 1-933): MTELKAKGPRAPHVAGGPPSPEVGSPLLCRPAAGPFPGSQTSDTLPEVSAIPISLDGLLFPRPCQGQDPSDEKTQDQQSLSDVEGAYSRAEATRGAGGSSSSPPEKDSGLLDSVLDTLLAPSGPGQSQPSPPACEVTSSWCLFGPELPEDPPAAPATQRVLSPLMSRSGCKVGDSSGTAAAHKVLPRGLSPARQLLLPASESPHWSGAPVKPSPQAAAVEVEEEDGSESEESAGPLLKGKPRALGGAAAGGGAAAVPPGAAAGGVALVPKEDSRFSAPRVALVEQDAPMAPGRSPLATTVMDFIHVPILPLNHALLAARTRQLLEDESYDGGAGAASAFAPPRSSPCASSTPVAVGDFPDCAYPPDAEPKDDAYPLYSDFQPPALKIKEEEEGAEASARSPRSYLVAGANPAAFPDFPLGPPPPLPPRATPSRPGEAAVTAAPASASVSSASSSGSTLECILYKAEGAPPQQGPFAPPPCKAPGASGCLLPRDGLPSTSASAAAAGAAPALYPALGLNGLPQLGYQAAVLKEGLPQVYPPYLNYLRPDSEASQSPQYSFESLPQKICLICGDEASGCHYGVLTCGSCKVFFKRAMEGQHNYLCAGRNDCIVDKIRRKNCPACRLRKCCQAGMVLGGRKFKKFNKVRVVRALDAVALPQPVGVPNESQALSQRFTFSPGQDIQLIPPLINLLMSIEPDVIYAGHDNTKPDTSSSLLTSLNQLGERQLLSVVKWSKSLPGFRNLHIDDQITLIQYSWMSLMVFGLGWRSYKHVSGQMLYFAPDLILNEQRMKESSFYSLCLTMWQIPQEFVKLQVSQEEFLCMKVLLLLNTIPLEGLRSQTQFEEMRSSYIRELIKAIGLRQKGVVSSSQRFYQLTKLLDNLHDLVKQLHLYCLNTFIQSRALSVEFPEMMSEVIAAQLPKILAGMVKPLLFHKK

[2] = system: serum hormone binding globulin (SHBG); conditions: in vivo
endometrium = conditions: animal models
[3] = ovariectomized rat, compared with progesterone

C#C[C@]1(OC(C)=O)CC[C@H]2[C@@H]3CCC4=CC(=NO)CC[C@@H]4[C@H]3CC[C@@]21CC (mixture of isomers) [norgestimate]
affinity for endometrial progesterone receptors [1]: high affinity
effect on serum hormone binding globulin (SHBG) levels [2]: minimal effect
endometrium in comparison to other, more androgenic, progestins (endometrium): remains relatively thick and supported
maintenance of pregnancy [3]: maintains pregnancy as well as progesterone
